Here are results for 13 compounds from patent US20250230155A1 (Vanderbilt University, priority 2021, published 2025).

For orientation: Emax means the maximal effect, on the per cent scale that the assay sets. The term EC50 denotes the concentration giving half of the maximal effect.

In the test the target is T1, human mAChR M4 (Homo sapiens, UniProt P08173).
T1 construct: expressed in transfected cells
T1 sequence (P08173 1-479): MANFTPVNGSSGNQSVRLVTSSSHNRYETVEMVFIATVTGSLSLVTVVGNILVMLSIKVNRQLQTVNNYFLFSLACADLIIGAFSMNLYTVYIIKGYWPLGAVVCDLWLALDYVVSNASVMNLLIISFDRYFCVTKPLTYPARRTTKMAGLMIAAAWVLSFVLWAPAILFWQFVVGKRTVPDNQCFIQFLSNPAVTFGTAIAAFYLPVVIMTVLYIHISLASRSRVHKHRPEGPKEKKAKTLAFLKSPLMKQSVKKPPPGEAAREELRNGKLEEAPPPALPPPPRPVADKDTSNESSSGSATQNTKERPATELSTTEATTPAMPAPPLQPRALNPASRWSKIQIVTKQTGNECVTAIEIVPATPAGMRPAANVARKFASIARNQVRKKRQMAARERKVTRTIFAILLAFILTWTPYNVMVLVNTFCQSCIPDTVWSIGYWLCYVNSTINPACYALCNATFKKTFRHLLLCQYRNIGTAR
Briefly: mAChR M4 cell-based functional assay (calcium mobilization, CHO-K1 hM4-Gqi5 cells). The settings on record: for Emax at 30 µM: CHO-K1, % ACh maximum at 30 μM, human M4; for EC50: positive allosteric modulator activity, increase in the EC20 acetylcholine response, CHO-K1 hM4-Gqi5 cells, read-out: Human M4 EC50. An outline of the steps:
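CHO-K1 cells stably expressing human M4 with chimeric Gqi5, loaded with Fluo-4 AM; compounds given as 11-point 1:3 curves and calcium flux read on FDSS at 1 Hz. Acetylcholine EC20 added at 144 s, EC80 at 230 s; agonist, PAM (EC20 potentiation) and antagonist (EC80 inhibition) EC50/Emax from four-parameter fits.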

As to `Cc1cc(C(=O)NCc2ccnn2C)cnc1N1CCc2ncccc2C1` [compound 63, 6-(7,8-dihydro-5H-1,6-naphthyridin-6-yl)-5-methyl-N-[(2-methylpyrazol-3-yl)methyl]pyridine-3-carboxamide], the maximum response (Emax) at 30 µM stood at 68% and the EC50 is 2710 nM.
Taken in the same sequence, the figures for `Cc1cc(C(=O)NC2CC2)cnc1N1CCc2ncccc2C1` [compound 64, N-cyclopropyl-6-(7,8-dihydro-5H-1,6-naphthyridin-6-yl)-5-methyl-pyridine-3-carboxamide] were 59% and at least 10000 nM.
Turning to `Cc1cc(C(=O)NC2CCCC2)cnc1N1CCc2ncccc2C1` [compound 65, N-cyclopentyl-6-(7,8-dihydro-5H-1,6-naphthyridin-6-yl)-5-methyl-pyridine-3-carboxamide], the Emax at 30 µM is 52% and the EC50 is at least 10000 nM.
For `Cc1cc(C(=O)NC2CCCCC2)cnc1N1CCc2ncccc2C1` [compound 66, N-cyclohexyl-6-(7,8-dihydro-5H-1,6-naphthyridin-6-yl)-5-methyl-pyridine-3-carboxamide] the same measures were 47% and at least 10000 nM.
Taken in the same sequence, the figures for `Cc1cc(C(=O)NCc2ccc(-n3cccn3)cc2)cnc1N1CCc2ncccc2C1` [compound 67, 6-(7,8-dihydro-5H-1,6-naphthyridin-6-yl)-5-methyl-N-[(4-pyrazol-1-ylphenyl)methyl]pyridine-3-carboxamide] were 55% and 1940 nM.
With `Cc1cc(C(=O)NCc2ccc3ncccc3c2)cnc1N1CCc2ncccc2C1` [compound 68, 6-(7,8-dihydro-5H-1,6-naphthyridin-6-yl)-5-methyl-N-(6-quinolylmethyl)pyridine-3-carboxamide], the Emax at 30 µM is 43% and the EC50 was 3140 nM.
For `Cc1cc(C(=O)NCc2cnn3ccccc23)cnc1N1CCc2ncccc2C1` [compound 69, 6-(7,8-dihydro-5H-1,6-naphthyridin-6-yl)-5-methyl-N-(pyrazolo[1,5-a]pyridin-3-ylmethyl)pyridine-3-carboxamide] the same measures were 80% and 2380 nM.
On to `Cc1cc(C(=O)NCc2ccccc2)cnc1N1CCc2ncccc2C1` [compound 70, N-benzyl-6-(7,8-dihydro-5H-1,6-naphthyridin-6-yl)-5-methyl-pyridine-3-carboxamide], for which the Emax at 30 µM amounted to 80% and the EC50 is 2930 nM.
`COC(=O)c1cnc(N2CCc3ncccc3C2)c(C)c1` [compound 71, methyl 6-(7,8-dihydro-5H-1,6-naphthyridin-6-yl)-5-methyl-pyridine-3-carboxylate]: the EC50 was 3380 nM. Besides, the Emax (CHO-K1) was 102%.
Turning to `Cc1cnc(F)cc1-c1cnc2c(c1)CN(c1nnc(C#N)c(C)c1C)CC2` [compound 72, 6-[3-(2-fluoro-5-methyl-4-pyridyl)-7,8-dihydro-5H-1,6-naphthyridin-6-yl]-4,5-dimethyl-pyridazine-3-carbonitrile], the Emax at 30 µM was 78% and the concentration for a half-maximal effect (EC50) was 233 nM.
On to `Cc1c(C#N)nnc(N2CCc3ncc(-c4ccnc(Cl)c4F)cc3C2)c1C` [compound 73, 6-[3-(2-chloro-3-fluoro-4-pyridyl)-7,8-dihydro-5H-1,6-naphthyridin-6-yl]-4,5-dimethyl-pyridazine-3-carbonitrile], for which the maximum response (Emax) at 30 µM worked out at 50% and the EC50 amounted to 940 nM.
Taken in the same sequence, the figures for `Cc1c(C#N)nnc(N2CCc3ncc(-c4ccncc4)cc3C2)c1C` [compound 74, 4,5-dimethyl-6-[3-(4-pyridyl)-7,8-dihydro-5H-1,6-naphthyridin-6-yl]pyridazine-3-carbonitrile] were 87% and 368 nM.
Taken in the same sequence, the figures for `Cc1c(C#N)nnc(N2CCc3ncc(-c4cc(F)nc(F)c4)cc3C2)c1C` [compound 75, 6-[3-(2,6-difluoro-4-pyridyl)-7,8-dihydro-5H-1,6-naphthyridin-6-yl]-4,5-dimethyl-pyridazine-3-carbonitrile] were 58% and 666 nM.
